In brackets after ≈: the same amount, converted by molar mass. Counter-ions that a name gives are not always drawn. Like-named read-outs stand apart in the source and are kept apart here.
Legend:
[1] = test system: intestinal phosphate absorption; test: Rat 33P phosphate oral challenge test (intestinal phosphate absorption suppression test); assay type: in vivo; conditions: male SD rats, 30 mg/kg forced oral administration, serum radioactivity AUC0-60 min vs control group
Experimental: (Test Example) Rat ^33P Phosphate Oral Challenge Test (Intestinal Phosphate Absorption Suppression Test)
Using male SD rats (5-7 weeks old) that had been fasted on the previous day, the compound described in the Examples was suspended or dissolved in a solvent such as 0.5% methyl cellulose (3-6 mg/mL), and the thus obtained solution was administered to each rat at a dose of 30 mg/kg by forced oral administration. On the other hand, regarding a control group, the solvent was administered to each rat at a dose of 5 mL/kg. Thirty minutes after administration, a […] phosphate solution (8.3 mM NaH2PO4, 0.35 MBq/mL) was administered to the rats at a dose of 7.2 mL/kg by forced oral administration. Then, 15, 30, 60, and 120 minutes after administration, blood was collected from the jugular vein of each rat under anesthesia with isoflurane. The radioactivity in […] was measured using a liquid scintillation counter, and the AUC0-60 min was then calculated from the radioactivity value. The obtained value was defined as an amount of phosphate absorbed. The phosphate absorption-inhibiting activity of the compound was calculated according to the following expression. Phosphate absorption-inhibiting activity (%)=[…]

[2] = Measurement of solubility (shaking at 37° C., UHPLC); assay type: physicochemical; conditions: for solubility at 24 h / solubility at 30 min: thermodynamic from solid; for Solubility Mc pH 6.0: diluted McIlvaine buffer pH 6.0, shaking at 37° C. for 30 minutes; for Solubility diluted McIlvaine buffer pH 6.0: diluted McIlvaine buffer pH 6.0, shaking at 37° C. for 24 hours
Experimental: With regard to the measurement of solubility, solubility was calculated by the following operations.
Approximately 5 mg of a sample was weighed into a test tube, and then 5 mL each solution (see below) that had previously been set at 37° C. was added to the test tube.
Using Thermomixer Comfort (a shaker) manufactured by Eppendorf, the test tube was intensively shaken at 37° C. for 30 seconds at 750 rpm, and was then left at rest for 4 minutes 30 seconds. This shaking and resting operation was repeated 5 times (30 minutes in total).
The solutions obtained 30 minutes and 24 hours after initiation of the shaking were promptly filtered through a membrane filter (pore diameter: 0.45 μm), and the obtained filtrates were each diluted with a sample solution to an appropriate concentration. The concentration of a compound in the filtrate was measured by UHPLC, and solubility was then calculated.
The following solutions were used. • JP1: 2.0 g of sodium chloride was dissolved in 7.0 mL of hydrochloric acid and water to prepare 1000 mL of a solution (pH: about 1.2). • JP2: 118 mL of a 0.2 mol/L sodium hydroxide test solution and water were added to 250 mL of a 0.2 mol/L potassium dihydrogen phosphate test solution to prepare 1000 mL of a solution (pH: about 6.8). • Water: Ultrapure water (for use in LC/MS) manufactured by Wako Pure Chemical Industries, Ltd. was used. • Mc pH 6.0: A diluted McIlvaine buffer (pH 6.0) manufactured by Kanto Chemical Co., Inc. was used. • Mc pH 7.5: A diluted McIlvaine buffer (pH 7.5) manufactured by Kanto Chemical Co., Inc. was used.
Conditions for HPLC are as follows.
Apparatus: UHPLC H-Class manufactured by Waters
Mobile phase: A: 0.01 mol/L aqueous potassium phosphate solution (pH 4.0); B: acetonitrile
Column: Acquity UPLC BEH C18, 2.1 mm ID×75 mm, particle diameter: 1.7 μm (Waters)
Column temperature: 40° C.
Detection wavelength: 220 nm

[3] = JP2 (pH about 6.8), shaking at 37° C. for 30 minutes
[4] = JP2 (pH about 6.8), shaking at 37° C. for 24 hours
[5] = shaking at 37° C. for 30 minutes

CCN([C@H]1CC[C@H](C(=O)O)CC1)S(=O)(=O)c1cccc(C(=O)Nc2ccc(N3CCCCC3)cc2C(=O)Nc2ccc(CCc3ccc(C(=O)O)cc3)cc2)c1 [Example 1, Disodium 4-[2-(4-{[2-({3-[(trans-4-carboxycyclohexyl) (ethyl)sulfamoyl]benzoyl}amino)-5-(piperidin-1-yl)benzoyl]amino}phenyl)ethyl]benzoate trihydrate]
Phosphorus absorption-inhibiting activity (%) [1]: 72% | solubility at 24 h ([2]; 37 °C, pH 6.8, aqueous buffer, JP2 (pH about 6.8), shaking at 37° C. for 24 hours, unit inferred, read-out: Solubility JP2): 10.7 µg/mL | solubility at 30 min ([2]; JP1 solution (sodium chloride/hydrochloric acid in water), 37 °C, pH 1.2, simulated gastric fluid, JP1 (pH about 1.2), shaking at 37° C. for 30 minutes, read-out: Solubility JP1): 1 µg/mL | solubility at 24 h ([2]; JP1 solution (sodium chloride/hydrochloric acid in water), 37 °C, pH 1.2, simulated gastric fluid, JP1 (pH about 1.2), shaking at 37° C. for 24 hours, unit inferred, read-out: Solubility JP1): 1.3 µg/mL | Solubility JP2 ([2]; JP2 (pH about 6.8), shaking at 37° C. for 30 minutes, trihydrate): 40.3 µg/mL | Solubility Mc pH 6.0 ([2]; trihydrate): 1.1 μg/mL | Solubility diluted McIlvaine buffer pH 6.0 ([2]; trihydrate): 0.1 μg/mL | Solubility water ([2]; shaking at 37° C. for 30 minutes, trihydrate): 949.4 µg/mL | Solubility water ([2]; shaking at 37° C. for 24 hours, trihydrate): 960.1 µg/mL

CCN([C@H]1CC[C@H](C(=O)O)CC1)S(=O)(=O)c1cccc(C(=O)Nc2ccc(N3CCCCC3)cc2C(=O)Nc2ccc(CCc3ccc(C(=O)O)cc3)cc2)c1 [Example 6, potassium sodium 4-[2-(4-{[2-({3-[(trans-4-carboxycyclohexyl)(ethyl)sulfamoyl]benzoyl}amino)-5-(piperidin-1-yl)benzoyl]amino}phenyl)ethyl]benzoate hydrate]
Phosphorus absorption-inhibiting activity (%) ([1]; hydrate, 30 mg/kg): 59% | Solubility JP2 ([2]; JP2 (pH about 6.8), shaking at 37° C. for 30 minutes, hydrate): 22.5 µg/mL | Solubility JP2 ([2]; JP2 (pH about 6.8), shaking at 37° C. for 24 hours, hydrate): 968.5 µg/mL | Solubility water ([2]; shaking at 37° C. for 30 minutes, hydrate): 2.2 µg/mL | Solubility water ([2]; shaking at 37° C. for 24 hours, hydrate): 940.7 µg/mL

CCN([C@H]1CC[C@H](C(=O)O)CC1)S(=O)(=O)c1cccc(C(=O)Nc2ccc(N3CCCCC3)cc2C(=O)Nc2ccc(CCc3ccc(C(=O)O)cc3)cc2)c1 [Example 7, mono-p-toluenesulfonate of 4-[2-(4-{[2-({3-[(trans-4-carboxycyclohexyl)(ethyl)sulfamoyl]benzoyl}amino)-5-(piperidin-1-yl)benzoyl]amino}phenyl)ethyl]benzoic acid]
Solubility JP1 ([2]; JP1 (pH about 1.2), shaking at 37° C. for 30 minutes): 0.7 µg/mL (≈ 0.896 µM) | solubility at 24 h ([2]; JP1 solution (sodium chloride/hydrochloric acid in water), 37 °C, pH 1.2, simulated gastric fluid, JP1 (pH about 1.2), shaking at 37° C. for 24 hours, unit printed as μL, read-out: Solubility JP1): 0.1 µg/mL (≈ 0.128 µM) | Solubility JP2 [2, 3]: 61.7 µg/mL (≈ 79 µM) | Solubility JP2 [2, 4]: 87.5 µg/mL (≈ 112 µM) | Solubility diluted McIlvaine buffer pH 6.0 [2]: 1058.4 μg/mL | solubility at 30 min ([2]; diluted McIlvaine buffer pH 7.5, 37 °C, pH 7.5, aqueous buffer, diluted McIlvaine buffer pH 7.5, shaking at 37° C. for 30 minutes, read-out: Solubility Mc pH 7.5): 639 µg/mL (≈ 819 µM) | Solubility water [2, 5]: 0.2 µg/mL (≈ 0.256 µM) | Solubility water ([2]; shaking at 37° C. for 24 hours): 0.2 µg/mL (≈ 0.256 µM)

CCN([C@H]1CC[C@H](C(=O)O)CC1)S(=O)(=O)c1cccc(C(=O)Nc2ccc(N3CCCCC3)cc2C(=O)Nc2ccc(CCc3ccc(C(=O)O)cc3)cc2)c1 [Example 8, monopiperazine salt of 4-[2-(4-{[2-({3-[(trans-4-carboxycyclohexyl)(ethyl)sulfamoyl]benzoyl}amino)-5-(piperidin-1-yl)benzoyl]amino}phenyl)ethyl]benzoic acid]
solubility at 24 h ([2]; JP1 solution (sodium chloride/hydrochloric acid in water), 37 °C, pH 1.2, simulated gastric fluid, JP1 (pH about 1.2), shaking at 37° C. for 24 hours, read-out: Solubility JP1): 1.4 µg/mL | Solubility JP2 [2, 3]: 105.7 µg/mL | Solubility JP2 [2, 4]: 137.8 µg/mL | Solubility Mc pH 6.0 [2]: 3.3 μg/mL | Solubility diluted McIlvaine buffer pH 6.0 [2]: 0.2 μg/mL | Solubility water [2, 5]: 31.7 µg/mL | Solubility water ([2]; shaking at 37° C. for 24 hours): 429.5 µg/mL
